Assay: Inhibition of gp120 in HIV-1 subtype B #11578 harboring pseudotyped Env pWEAUd15.410.5017 infected in human TZM-bl cells assessed as reduction in viral infection pretreated for 30 mins before viral infection and measured after 3 days by luciferase based single cycle infection assay
For `Cc1nc([C@@H](CN)NC(=O)C(=O)Nc2ccc(Cl)cc2)sc1CO`, the IC50 was > 27 µM. With `Cc1nc([C@H](CN)NC(=O)C(=O)Nc2ccc(Cl)cc2)sc1CO` the IC50 was > 27 µM. With `Cc1nc([C@@H](CCN)NC(=O)C(=O)Nc2ccc(Cl)cc2)sc1CO` the IC50 was > 15 µM. In the case of `Cc1nc([C@H](CCN)NC(=O)C(=O)Nc2ccc(Cl)cc2)sc1CO`, the IC50 is reported as > 15 µM. For `NC[C@@H](NC(=O)C(=O)NCc1ccc(Cl)c(F)c1)c1ncc(CO)s1`, the IC50 was > 15 µM. With `NC[C@H](NC(=O)C(=O)NCc1ccc(Cl)c(F)c1)c1ncc(CO)s1` the IC50 was > 15 µM. For `NC[C@@H](NC(=O)CNCc1ccc(Cl)cc1)c1ncc(CO)s1`, the IC50 was > 23.4 µM. In the case of `NC[C@H](NC(=O)CNCc1ccc(Cl)cc1)c1ncc(CO)s1`, the IC50 is reported as > 23.4 µM. `NC[C@@H](NC(=O)c1ccc(-c2ccc(Cl)cc2)[nH]1)c1nccs1` showed an IC50 of 3.3 µM. Work on `NC[C@H](NC(=O)c1ccc(-c2ccc(Cl)cc2)[nH]1)c1nccs1` yielded an IC50 of 0.8 µM. For `NCCNC(=O)c1ccc(-c2ccc(Cl)c(F)c2)[nH]1`, the IC50 was 3.8 µM. `O=C(NC1CCNCC1)c1ccc(-c2ccc(Cl)c(F)c2)[nH]1` gave an IC50 of 6.6 µM. Work on `CC1(C)CC(NC(=O)c2ccc(-c3ccc(Cl)c(F)c3)[nH]2)CC(C)(C)N1` yielded an IC50 of 6.2 µM. For `O=C(NC1(c2nc(CO)cs2)CCNCC1)c1ccc(-c2ccc(C(F)(F)F)cc2)[nH]1`, the IC50 was 11.4 µM. Compound `O=C(N[C@H](CC1CCNCC1)c1nc(CO)cs1)c1ccc(-c2ccc(C(F)(F)F)cc2)[nH]1` has an IC50 of 12.4 µM. In the case of `O=C(N[C@@H](CC1CCNCC1)c1nc(CO)cs1)c1ccc(-c2ccc(C(F)(F)F)cc2)[nH]1`, the IC50 is reported as 8.5 µM. In the case of `Cc1nc([C@@H](CN)NC(=O)NC(=O)c2ccc(Cl)cc2)sc1CO`, the IC50 is reported as > 54 µM. For `Cc1nc([C@H](CN)NC(=O)NC(=O)c2ccc(Cl)cc2)sc1CO`, the IC50 was > 54 µM. In the case of `NC[C@@H](NC(=O)c1ccc(C2CCCCC2)[nH]1)c1ncc(CO)s1`, the IC50 is reported as > 28 µM. In the case of `NC[C@H](NC(=O)c1ccc(C2CCCCC2)[nH]1)c1ncc(CO)s1`, the IC50 is reported as > 28 µM. For `NC[C@@H](NC(=O)c1ccc(OCC2CCCCC2)cc1)c1ncc(CO)s1`, the IC50 was > 15 µM. With `NC[C@H](NC(=O)c1ccc(OCC2CCCCC2)cc1)c1ncc(CO)s1` the IC50 was > 15 µM. For `NC[C@@H](NC(=O)c1ccc(NCC2CCCCC2)cc1)c1ncc(CO)s1`, the IC50 was > 15 µM. With `NC[C@H](NC(=O)c1ccc(NCC2CCCCC2)cc1)c1ncc(CO)s1` the IC50 was > 15 µM. In the case of `NC[C@@H](NC(=O)Cc1ccc(OCC2CCCCC2)cc1)c1ncc(CO)s1`, the IC50 is reported as > 25 µM. In the case of `NC[C@H](NC(=O)Cc1ccc(OCC2CCCCC2)cc1)c1ncc(CO)s1`, the IC50 is reported as > 25 µM. With `Cc1nc([C@@H](CN)NC(=O)c2cc3ccccc3[nH]2)sc1CO` the IC50 was > 60 µM. In the case of `Cc1nc([C@H](CN)NC(=O)c2cc3ccccc3[nH]2)sc1CO`, the IC50 is reported as > 60 µM. For `Cc1nc([C@@H](CN)NC(=O)c2cc3cc(Cl)ccc3[nH]2)sc1CO`, the IC50 was > 40 µM. In the case of `Cc1nc([C@H](CN)NC(=O)c2cc3cc(Cl)ccc3[nH]2)sc1CO`, the IC50 is reported as > 40 µM.
